Experimental data published in BindingDB's records for PubMed 33333396 (National University of Ireland Galway, 2021).

Key:
[1] = biological target: T1, Bcl-2 homologous antagonist/killer (Homo sapiens, UniProt Q16611); assay: Inhibition of Mcl-1/Bak (unknown origin)
T1 sequence (Q16611 whole entry): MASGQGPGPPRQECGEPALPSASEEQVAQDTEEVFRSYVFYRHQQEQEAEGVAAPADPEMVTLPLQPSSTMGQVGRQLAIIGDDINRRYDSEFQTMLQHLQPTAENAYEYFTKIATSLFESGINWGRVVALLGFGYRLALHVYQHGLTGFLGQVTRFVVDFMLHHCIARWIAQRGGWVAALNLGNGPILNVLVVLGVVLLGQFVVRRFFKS

[2] = biological target: T1, Bcl-2 homologous antagonist/killer; assay: Binding affinity to Bak/Mcl-1 (unknown origin) protein protein interaction by fluorescence polarization assay

Structure (SMILES): Cc1cc2c(C(=O)NC(C)c3ccc(Cl)cc3)c(O)c(O)cc2c(O)c1-c1c(C)cc2c(C(=O)NC(C)c3ccc(Cl)cc3)c(O)c(O)cc2c1O (configuration not stated) [Apogossypol derivative, 8k]
- IC50 [1]: 230 nM

Structure (SMILES): CC(C)Oc1cc(C(=O)Nc2ccc(C(=O)Nc3ccc(C(=O)O)cc3OC(C)C)nc2OC(C)C)ccc1N
- Ki [2]: 1790 nM
